This passage reports activity results from patent publication US11459325B2, “Heterocyclic compound” (Takeda Pharmaceutical Company Limited, priority 2018, dated 2022).

The experiment deals with GBA mutant human fibroblasts GM008760. Put plainly: Glucosylceramide lowering assay. Format: cell-based. As to conditions: Homo sapiens, Fibroblast, 96 h; 10 μM test compound, 4 days culture; GlcCer (C16:0)/Cer (C16:0) molar ratio of test compound group relative to DMSO control group x100; smaller value = glucosylceramide lowering. In short, it runs like this:
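Fibroblasts with mutant GBA were treated with 10 μM compound for 4 days. Lipids extracted in ethanol/isopropanol with deuterated internal standard; GlcCer (C16:0) and Cer (C16:0) quantified by RapidFire-MS/MS. Value is GlcCer/Cer ratio relative to DMSO control ×100.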
Turning to `Cc1cn(-c2ccccc2OCC(F)(F)F)c(=O)c2c(C(=O)N3CCC(Oc4ccc(Cl)cc4)CC3)cnn12` [Example 335, 3-[4-(4-chlorophenoxy)piperidine-1-carbonyl]-7-methyl-5-[2-(2,2,2-trifluoroethoxy)phenyl]pyrazolo[1,5-a]pyrazin-4(5H)-one], the activity at 10 µM is 68%.

With `Cc1cn(-c2ccc(F)cc2OCC(F)(F)F)c(=O)c2c(C(=O)Nc3ccc(N4CCOCC4)cc3)cnn12` [Example 336, 5-[4-fluoro-2-(2,2,2-trifluoroethoxy)phenyl]-7-methyl-N-[4-(morpholin-4-yl)phenyl]-4-oxo-4,5-dihydropyrazolo[1,5-a]pyrazine-3-carboxamide], the activity at 10 µM turned out to be 42%.

Consider `Cc1cn(-c2ccccc2OCC(F)(F)F)c(=O)c2c(C(=O)Nc3ccc(OCC(F)(F)F)nc3)cnn12` [Example 337, 7-methyl-4-oxo-5-[2-(2,2,2-trifluoroethoxy)phenyl]-N-[6-(2,2,2-trifluoroethoxy)pyridin-3-yl]-4,5-dihydropyrazolo[1,5-a]pyrazine-3-carboxamide], for which the activity at 10 µM turned out to be 37%. As for `Cc1cn(-c2ccccc2OCC(F)(F)F)c(=O)c2c(C(=O)Nc3ccc(OC(F)F)nc3)cnn12` [Example 338, N-[6-(difluoromethoxy)pyridin-3-yl]-7-methyl-4-oxo-5-[2-(2,2,2-trifluoroethoxy)phenyl]-4,5-dihydropyrazolo[1,5-a]pyrazine-3-carboxamide], the figure is 40%.

For `CCCCO[C@H]1CC[C@H](NC(=O)c2cnn3c(C)cn(-c4ccccc4OCC(F)(F)F)c(=O)c23)CC1` [Example 339, N-[trans-4-butoxycyclohexyl]-7-methyl-4-oxo-5-[2-(2,2,2-trifluoroethoxy)phenyl]-4,5-dihydropyrazolo[1,5-a]pyrazine-3-carboxamide], the activity at 10 µM was 30%. For `Cc1cn(-c2ccccc2OCC(F)(F)F)c(=O)c2c(C(=O)Nc3ccc(C(C)(C)O)cc3)cnn12` [Example 340, N-[4-(2-hydroxypropan-2-yl)phenyl]-7-methyl-4-oxo-5-[2-(2,2,2-trifluoroethoxy)phenyl]-4,5-dihydropyrazolo[1,5-a]pyrazine-3-carboxamide], the activity at 10 µM worked out at 33%. In the case of `Cc1cn(-c2ccccc2OCC(F)(F)F)c(=O)c2c(C(=O)Nc3ccc(C4CC4)nc3)cnn12` [Example 341, N-(6-cyclopropylpyridin-3-yl)-7-methyl-4-oxo-5-[2-(2,2,2-trifluoroethoxy)phenyl]-4,5-dihydropyrazolo[1,5-a]pyrazine-3-carboxamide], the activity at 10 µM amounted to 32%. As for `Cc1cn(-c2ccccc2OCC(F)(F)F)c(=O)c2c(C(=O)Nc3ccc(C#N)nc3)cnn12` [Example 342, N-(6-cyanopyridin-3-yl)-7-methyl-4-oxo-5-[2-(2,2,2-trifluoroethoxy)phenyl]-4,5-dihydropyrazolo[1,5-a]pyrazine-3-carboxamide], the figure is 28%.

With `Cc1cn(-c2ccccc2OCC(F)(F)F)c(=O)c2c(C(=O)Nc3ccc(C#N)cn3)cnn12` [Example 343, N-(5-cyanopyridin-2-yl)-7-methyl-4-oxo-5-[2-(2,2,2-trifluoroethoxy)phenyl]-4,5-dihydropyrazolo[1,5-a]pyrazine-3-carboxamide], the activity at 10 µM amounted to 23%.

Consider `Cc1cn(C)c(=O)n2c(C(=O)NC(C)(C)c3ccc(Cl)cc3)cnc12` [Example 347, N-[2-(4-chlorophenyl)propan-2-yl]-6,8-dimethyl-5-oxo-5,6-dihydroimidazo[1,2-c]pyrimidine-3-carboxamide], for which the activity at 10 µM came to 44%. Under `COc1ccccc1-n1cc(C)c2ncc(C(=O)Nc3ccc(N4CCOCC4)cc3)n2c1=O` [Example 350, 6-(2-methoxyphenyl)-8-methyl-N-[4-(morpholin-4-yl)phenyl]-5-oxo-5,6-dihydroimidazo[1,2-c]pyrimidine-3-carboxamide] stands 54%.
